Columns and labels:
[1] = target: pig alpha-2-delta receptor 1 (A2DR1) (Sus scrofa, UniProt A0A287BIN3); assay: [3H]Gabapentin scintillant proximity A2DR1 binding assay (A2DR1 SPA, Biological Method 5); settings: displacement of [3H]-gabapentin
Experimental: (§1) Recombinant HEK 293 cells expressing pig A2DR1 and A2DR2 subunits were grown under normal cell culture conditions (RPMI-1640 media with 10% FBS, 200 μg G418, and 1% penicillin/streptomycin 1t 37° C. with 5% CO2) until reaching confluency in T-75 flasks, at which time they were harvested. The harvested cells were suspended in ice-cold 5 mM Tris/5 mM ethylenediaminetetraacetic acid (“EDTA”) buffer, pH 7.4 (“TE buffer”) containing phenylmethylsulfonyl fluoride (“PMSF”) (0.1 mM) and Roche Complete Protease Inhibitor Cocktail, and allowed to sit on ice for 30 minutes. The cells were broken by sonication using 20 bursts, 40-50 cycles, and then centrifuged at 3000×g for 10 minutes. The resulting supernatant was transferred to a new tube and centrifuged at 50,000×g for 30 minutes. The resulting pellet was resuspended in 10 mM HEPES buffer, pH 7.4, homogenized, and stored at—80° C. The A2DR1 or A2DR2 membrane protein concentration was determined by the Pierce BCA method using bovine serum albumin (“BSA”) as the standard.
(§2) The [^3H]gabapentin SPA binding assay was performed in Costar 3632 96-well, clear bottom assay plates using Wheatgerm agglutinin beads (Amersham Pharmacia Biotech). Pig A2DR1 or A2DR2 membranes (10-20 μg protein per well) prepared above in Step (1) and SPA beads (0.5 mg per well) were mixed with 30 nM [^3H]gabapentin (52 Ci/mmol; Amersham Pharmacia Biotech) in 10 mM HEPES/10 mM MgSO4 assay buffer, pH 7.4 using KOH. The final well volume was 200 μL and non-specific binding was determined in the presence of 10 μM unlabeled pregabalin. The final mixture containing A2DR1 or A2DR2 membrane protein incubated with SPA beads, test compounds, and [^3H]gabapentin was incubated at room temperature for 15-24 hours, and the plates were then counted on a Wallace Trilux 1450 Microbeta scintillation counter. Step (3): Determination of IC50 values
(§3) Curve fitting and IC50 values were calculated using a four-parameter, non-linear regression equation from GraphPad Prism 3.0 software, while Ki values were determined using the equation of Chang and Prussoff.

[2] = test system: MIA Rat (monosodium iodoacetate-induced osteoarthritis, right knee joint); assay: Monosodium iodoacetate-induced osteoarthritis in rat model of joint cartilage damage (MIA Rat); format: in vivo; settings: 10 mg/kg/day via osmotic pump, 2-week MIA study, Day 14, rat
From the text: One end result of the induction of osteoarthritis in this model, as determined by histologic analysis, is the development of an osteoarthritic condition within the affected joint, as characterized by the loss of Toluidine blue staining and formation of osteophytes. Associated with the histologic changes is a concentration-dependent degradation of joint cartilage, as evidenced by affects on hind-paw weight distribution of the limb containing the affected joint, the presence of increased amounts of proteoglycan or hydroxyproline in the joint upon biochemical analysis, or histopathological analysis of the osteoarthritic lesions.
The invention compounds typically are not effective for relieving joint pain when administered in an acute model, such as the instant MIA Rat model, which has a duration of just 14 or 28 days.
Generally, In the MIA Rat model on Day 0, the hind-paw weight differential between the right arthritic joint and the left healthy joint of male Wistar rats (150 g) are determined with an incapacitance tester, model 2KG (Linton Instrumentation, Norfolk, United Kingdom). The incapacitance tester has a chamber on top with an outwardly sloping front wall that supports a rat's front limbs, and two weight sensing pads, one for each hind paw, that facilitates this determination. Then the rats are anesthetized with isofluorine, and the right, hind leg knee joint is injected with 1.0 mg of mono-iodoacetate (“MIA”) through the infrapatellar ligament. Injection of MIA into the joint results in the inhibition of glycolysis and eventual death of surrounding chondrocytes. The rats are further administered either an invention compound or vehicle (in the instant case, water) daily for 14 days or 28 days.
The invention compound is typically administered at a dose of 30 mg of per kilogram of rat per day (30 mg/kg/day), but may be administered at other doses such as, for example, 10 mg/kg/day, 60 mg/kg/day, 90-mg/kg/day, or 100 mg/kg/day according to the requirements of the invention compound being studied. It is well within the level of ordinary skill in the pharmaceutical arts to determine a proper dosage of an invention compound in this model.
Administration of an invention compound in this model is optionally by oral administration or by intravenous administration via an osmotic pump. After 7 and 14 days for a two week study, or 7, 14, and 28 days for a four week study, the hind-paw weight distribution is again determined. Typically, the animals administered vehicle alone place greater weight on their unaffected left hind paw than on their right hind paw, while animals administered an invention compound show a more normal (i.e., more like a healthy animal) weight distribution between their hind paws. This change in weight distribution was proportional to the degree of joint cartilage damage. Percent inhibition of a change in hind paw joint function is calculated as the percent change in hind-paw weight distribution for treated animals versus control animals. For example, for a two week study, [formula] wherein: ΔWC is the hind-paw weight differential between the healthy left limb and the arthritic limb of the control animal administered vehicle alone, as measured on Day 14; and • ΔWG is the hind-paw weight differential between the healthy left limb and the arthritic limb of the animal administered an invention compound as measured on Day 14.
In order to measure biochemical or histopathological end points in the MIA Rat model, some of the animals in the above study may be sacrificed, and the amounts of free proteoglycan in both the osteoarthritic right knee joint and the contralateral left knee joint may be determined by biochemical analysis. The amount of free proteoglycan in the contralateral left knee joint provides a baseline value for the amount of free proteoglycan in a healthy joint. […]

[3] = target: pig alpha-2-delta receptor 2 (A2DR2) (UniProt A0A8W4FF87); assay: [3H]Gabapentin scintillant proximity A2DR2 binding assay (A2DR2 SPA, Biological Method 5); settings: displacement of [3H]-gabapentin
Experimental: as §1, §2, §3

[4] = target: T1, alpha-2-delta receptor 2 (A2DR2) (Homo sapiens, UniProt Q9NY47); assay: [3H]Gabapentin A2DR2 binding assay (filter, Biological Method 4); settings: displacement of [3H]-gabapentin
T1 construct: expressed in transfected cells; host or cells: HEK 293 (membrane preparation)
From the text: (§4) HEK 293 recombinant cells expressing A2DR1 or A2DR2 protein are harvested and washed in phosphate buffered saline (“PBS”). The cells are centrifuged and resuspended in tris(hydroxymethyl)aminomethane-ethylenediaminetetraacetic acid (“Tris-EDTA” or “TE”) buffer containing Roche Complete Protease Inhibitor Cocktail. The cells are homogenized, centrifuged at 3000×g, and the supernatant centrifuged again at 50,000×g. The resulting pellet is resuspended and homogenized in TE. Following determination of A2DR1 or A2DR2 protein concentration, aliquots are stored at −70° C. until the day of testing (membrane preparation may be used for at least 6 months).
(§5) In one version, the binding assay is set up in a 96-well format using deep-well polypropylene plates. In a total volume of 500 μL, the following additions are made: 250 μL buffer [[…] N-2-hydroxyethylpiperazine-N′-2-ethanesulfonic acid (“HEPES”), pH 7.4], 25 μL [3H]gabapentin (10 nM final concentration), 200 μL thawed tissue membrane preparation from Step (1) (˜40 μg protein), and 25 μL of test compound at 7 test dilutions (for example, 0.001, 0.01, 0.03, 0.1, 0.3, 1.0, and 10 μM concentrations). Non-specific binding for each plate is determined by the addition of 10 μM of pregabalin instead of test compound in a few of the 96 wells. Following incubation for 45 minutes at 21° C., the contents of the wells are filtered under vacuum onto glass filter/B (“GF/B”) filter mats and then washed 4×1 mL with chilled 50 mM tris(hydroxymethyl)aminomethane (“Tris”) HCl, pH 6.9. The mats are placed into plastic pouches, scintillation cocktail is added, the pouches are sealed, and radioactivity for each sample is counted.
(§6) Specific binding values for each concentration are transformed and then analyzed by a 4-parameter nonlinear regression equation provided by Prism graphics software by Graph Pad to determine IC50 values by conventional means.

[5] = target: alpha-2-delta receptor 1 (A2DR1) (Homo sapiens, UniProt P54289); assay: [3H]Gabapentin A2DR1 binding assay (filter, Biological Method 4); settings: displacement of [3H]-gabapentin
From the text: as §4, §5, §6

Chain of alpha-2-delta receptor 1 (A2DR1) (P54289 25-1103): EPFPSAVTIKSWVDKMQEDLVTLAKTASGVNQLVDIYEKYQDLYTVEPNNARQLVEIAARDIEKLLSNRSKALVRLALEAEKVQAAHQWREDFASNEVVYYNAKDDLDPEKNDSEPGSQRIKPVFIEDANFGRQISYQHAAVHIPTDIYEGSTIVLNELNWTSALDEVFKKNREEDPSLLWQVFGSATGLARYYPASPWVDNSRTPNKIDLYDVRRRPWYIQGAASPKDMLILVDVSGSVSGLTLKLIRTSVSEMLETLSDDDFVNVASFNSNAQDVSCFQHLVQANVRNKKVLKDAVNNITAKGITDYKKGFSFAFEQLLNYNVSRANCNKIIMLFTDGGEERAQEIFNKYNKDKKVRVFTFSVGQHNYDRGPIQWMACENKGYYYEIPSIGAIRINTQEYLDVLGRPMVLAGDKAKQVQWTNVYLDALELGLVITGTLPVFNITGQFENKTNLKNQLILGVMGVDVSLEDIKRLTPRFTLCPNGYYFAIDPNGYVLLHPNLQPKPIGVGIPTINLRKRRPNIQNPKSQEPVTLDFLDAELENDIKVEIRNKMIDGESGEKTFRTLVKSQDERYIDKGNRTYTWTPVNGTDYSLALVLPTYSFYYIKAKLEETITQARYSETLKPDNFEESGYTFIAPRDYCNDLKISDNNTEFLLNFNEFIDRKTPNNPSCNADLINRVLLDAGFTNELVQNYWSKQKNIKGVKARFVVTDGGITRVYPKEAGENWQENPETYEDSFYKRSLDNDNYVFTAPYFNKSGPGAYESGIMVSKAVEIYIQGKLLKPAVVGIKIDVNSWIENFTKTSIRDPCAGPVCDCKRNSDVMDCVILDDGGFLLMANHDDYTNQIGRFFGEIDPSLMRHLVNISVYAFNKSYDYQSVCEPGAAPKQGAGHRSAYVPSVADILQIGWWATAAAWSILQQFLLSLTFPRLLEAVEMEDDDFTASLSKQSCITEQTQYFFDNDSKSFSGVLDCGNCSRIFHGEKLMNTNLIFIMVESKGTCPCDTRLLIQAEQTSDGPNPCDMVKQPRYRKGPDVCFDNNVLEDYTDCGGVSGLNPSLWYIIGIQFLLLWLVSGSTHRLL
T1 sequence (Q9NY47 19-1150): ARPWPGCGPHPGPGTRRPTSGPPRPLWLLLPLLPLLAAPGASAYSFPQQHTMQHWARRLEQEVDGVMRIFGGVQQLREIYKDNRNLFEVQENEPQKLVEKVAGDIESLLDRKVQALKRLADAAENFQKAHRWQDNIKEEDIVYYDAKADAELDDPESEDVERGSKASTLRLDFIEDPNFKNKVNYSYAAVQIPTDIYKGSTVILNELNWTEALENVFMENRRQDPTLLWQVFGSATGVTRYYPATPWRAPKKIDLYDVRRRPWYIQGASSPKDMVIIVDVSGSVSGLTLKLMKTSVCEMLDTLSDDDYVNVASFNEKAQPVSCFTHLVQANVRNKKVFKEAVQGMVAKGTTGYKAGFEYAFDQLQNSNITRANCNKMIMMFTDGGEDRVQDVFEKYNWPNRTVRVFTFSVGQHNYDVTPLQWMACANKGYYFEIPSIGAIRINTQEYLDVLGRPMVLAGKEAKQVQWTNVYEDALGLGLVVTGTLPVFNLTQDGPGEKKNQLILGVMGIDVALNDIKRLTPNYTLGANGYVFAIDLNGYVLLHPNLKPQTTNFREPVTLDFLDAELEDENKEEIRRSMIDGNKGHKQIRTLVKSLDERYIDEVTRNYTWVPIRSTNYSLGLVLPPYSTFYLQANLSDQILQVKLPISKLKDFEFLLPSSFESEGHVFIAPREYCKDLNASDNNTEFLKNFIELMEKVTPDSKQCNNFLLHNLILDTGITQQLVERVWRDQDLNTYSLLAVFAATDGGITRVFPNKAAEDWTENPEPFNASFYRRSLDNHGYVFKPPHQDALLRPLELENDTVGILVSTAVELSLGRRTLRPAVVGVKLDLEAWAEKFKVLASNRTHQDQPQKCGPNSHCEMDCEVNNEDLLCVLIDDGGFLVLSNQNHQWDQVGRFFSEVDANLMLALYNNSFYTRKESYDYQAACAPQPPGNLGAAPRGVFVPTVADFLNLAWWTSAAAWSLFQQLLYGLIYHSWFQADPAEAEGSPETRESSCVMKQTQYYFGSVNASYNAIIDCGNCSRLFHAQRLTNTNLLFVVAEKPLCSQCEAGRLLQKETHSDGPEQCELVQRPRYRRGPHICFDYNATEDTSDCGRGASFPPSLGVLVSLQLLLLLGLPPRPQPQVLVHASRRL
Chain of pig alpha-2-delta receptor 1 (A2DR1) (A0A287BIN3 1-1109): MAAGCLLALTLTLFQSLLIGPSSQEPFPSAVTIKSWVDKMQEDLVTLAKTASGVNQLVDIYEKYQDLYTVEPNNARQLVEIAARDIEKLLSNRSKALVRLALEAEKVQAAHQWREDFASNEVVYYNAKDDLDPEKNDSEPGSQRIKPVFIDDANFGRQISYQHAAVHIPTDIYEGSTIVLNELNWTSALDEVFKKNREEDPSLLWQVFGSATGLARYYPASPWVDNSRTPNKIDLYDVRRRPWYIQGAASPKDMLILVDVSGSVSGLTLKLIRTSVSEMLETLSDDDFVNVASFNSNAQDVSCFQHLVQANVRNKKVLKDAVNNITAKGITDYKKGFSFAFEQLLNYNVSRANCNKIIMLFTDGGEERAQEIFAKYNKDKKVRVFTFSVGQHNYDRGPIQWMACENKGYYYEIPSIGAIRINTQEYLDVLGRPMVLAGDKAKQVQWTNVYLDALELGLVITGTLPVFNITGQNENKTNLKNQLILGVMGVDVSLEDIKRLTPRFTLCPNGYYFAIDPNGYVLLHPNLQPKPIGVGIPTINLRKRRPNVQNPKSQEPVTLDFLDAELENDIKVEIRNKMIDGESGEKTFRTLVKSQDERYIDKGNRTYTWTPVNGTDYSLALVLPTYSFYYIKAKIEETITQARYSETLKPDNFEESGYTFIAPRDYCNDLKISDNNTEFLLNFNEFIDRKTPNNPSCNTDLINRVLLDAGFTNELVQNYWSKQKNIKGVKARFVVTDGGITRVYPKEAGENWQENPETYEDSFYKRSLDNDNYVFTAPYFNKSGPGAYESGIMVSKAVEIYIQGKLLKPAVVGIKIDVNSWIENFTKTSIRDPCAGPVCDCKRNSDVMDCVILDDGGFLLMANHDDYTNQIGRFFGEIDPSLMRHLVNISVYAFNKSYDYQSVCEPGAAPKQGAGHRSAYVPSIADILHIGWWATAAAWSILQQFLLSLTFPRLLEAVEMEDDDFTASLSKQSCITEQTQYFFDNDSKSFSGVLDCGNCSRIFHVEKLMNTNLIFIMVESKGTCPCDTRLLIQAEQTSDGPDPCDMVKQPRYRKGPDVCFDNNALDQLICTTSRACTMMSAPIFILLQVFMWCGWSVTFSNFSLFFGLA

SMILES | melting point | IC50 [1] [µM] | % I @ 10 mg/kg/day (%) (± SEM): inhibition of loss of hind limb joint function in MIA at Day 14 [2] | IC50 [3] [µM] | IC50 [4] [µM] | IC50 [5] [µM]
C1CC[C@@H]2N[C@H](c3nnn[nH]3)C[C@@H]2C1 | 240 °C (dec.) | – | – | – | – | –
CCC1CC[C@@H]2C[C@@H](C(=O)O)N[C@@H]2C1.Cl (stereo partly drawn) | 188 to 190 °C | – | – | – | – | –
O=C(O)[C@@H]1C[C@H]2CCC(c3ccccc3)C[C@H]2N1 (stereo partly drawn) | 200 to 205 °C | – | – | – | – | –
CN(C)CCOC(=O)[C@@H]1C[C@@H]2CCCC[C@@H]2N1.Cl | 189 to 195 °C | – | – | – | – | –
CN1C(C(=O)O)C[C@@H]2CCCC[C@@H]21 (mixture of isomers) [Example A4] | – | ≥ 10 | 67 ± 8 | ≥ 10 | ≥ 10 | –
CC1(C(=O)O)C[C@@H]2CCCC[C@@H]2N1 (mixture of isomers) [Example B2] | – | ≥ 10 | 58 ± 12 | ≥ 10 | ≥ 10 | 2.83
O=C(NS(=O)(=O)C(F)(F)F)[C@@H]1C[C@@H]2CCCC[C@@H]2N1 [Example E3] | 247 to 249 °C | – | – | – | ≥ 10 | ≥ 10
CN1[C@H](C(=O)NS(=O)(=O)C(F)(F)F)C[C@@H]2CCCC[C@@H]21 [Example E4] | 189 to 192 °C | – | – | – | ≥ 10 | ≥ 10
CC1CCC2NC(C(=O)O)CC2C1 (stereo not drawn) [Example O5] | – | 2.8 | −32 ± 20 | ≥ 10 | 0.29 | 0.11
O=C(NC1CCC2NC(C(=O)O)CC2C1)C1CCCCC1 (stereo not drawn) [Example O6] | – | – | −48 ± 10 | – | ≥ 10 | ≥ 10
NC1CCC2NC(C(=O)O)CC2C1 (stereo not drawn) [Example O7] | – | – | −63 ± 14 | – | ≥ 10 | ≥ 10

Source: patent publication US20050143427A1, “[B]-fused bicyclic proline derivatives and their use for treating arthritic conditions” (priority 2003, published 2005)
